Data as given in patent US5397702A, “Assay for and treatment of autoimmune diseases” (priority 1990, dated 1995).
Residue numbers refer to the chain shown, from its start. pIC50, pKd: −log10 of the molar value. Like-named read-outs stand apart in the source and are kept apart here.

How the values were obtained:
[1] = molecular target: T1, type l K+ channel (human) (Homo sapiens, UniProt P48547); assay: Patch-clamp pharmacology of type l K+ channels in human Louckes lymphoma cells; assay type: cell-based
T1 construct: Native channels; endogenous in cells; host or cells: Louckes human B cell lymphoma line
T1 sequence (P48547 1-511): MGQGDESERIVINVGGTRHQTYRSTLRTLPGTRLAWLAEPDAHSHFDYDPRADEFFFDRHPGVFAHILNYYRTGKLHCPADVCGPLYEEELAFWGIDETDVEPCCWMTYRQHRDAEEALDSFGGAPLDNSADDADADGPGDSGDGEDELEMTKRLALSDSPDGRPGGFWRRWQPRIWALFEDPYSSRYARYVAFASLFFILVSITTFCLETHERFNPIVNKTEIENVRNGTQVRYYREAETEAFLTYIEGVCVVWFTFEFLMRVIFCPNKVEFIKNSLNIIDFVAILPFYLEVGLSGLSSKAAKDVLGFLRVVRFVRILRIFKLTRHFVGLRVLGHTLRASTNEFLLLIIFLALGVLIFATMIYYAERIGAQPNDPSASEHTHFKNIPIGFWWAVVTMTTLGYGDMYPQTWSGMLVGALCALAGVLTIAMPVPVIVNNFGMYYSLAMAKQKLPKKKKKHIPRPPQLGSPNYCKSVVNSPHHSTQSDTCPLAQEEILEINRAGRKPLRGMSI
Description: For the two-electrode voltage-clamp experiments, cells were bathed in oocyte Ringer solution containing 96mM NaCl, 2 mM KCl, 1.8 mM CaCl2, 1 mM MgCl2, 5 mM N-2-hydroxyethylpiperazine-N'-2-ethanesulfonic acid (HEPES), and adjusted to pH 7.5 with NaOH. The pipette solution was 3 M KCl. Patch-clamp experiments were carried out under identical conditions in oocytes and in T cells, using a mammalian Ringer solution containing 160 mM NaCl, 4.5 mM KCl, 2 mM CaCl2,1 mM MgCl2, 5 mM HEPES, and adjusted to pH 7.4 with NaOH and a total osmolarity of 290-320 mosm/kg. Internal (pipette) solutions contained: 140 mM KF, 2 mM MgCl2, 1 mM CaCl2, 5mM HEPES, 11 mM K2 -ethylene glycol-bis(β-aminoethylether)N,N,N',N'-tetraacetic acid (EGTA). CTX was purchased from Latoxan (IBF-Biotechnics, Inc., Columbia, Md.).
(§1) The patch-clamp amplifier (List L/M-EPC 7, Adams and List Associates, Ltd., Great Neck, N.Y.) was used in the voltage-clamp mode without series resistance compensation. Patchclamp electrodes were pulled from Accu-fill 90 Micropets (Becton, Dickinson & Co., Parsippany, N.J.) in three stages, coated with Sylgard (Dow Corning Corp., Midland, Mich.) and fire-polished to resistances, measured in the bath, of 2-7 M.OMEGA.. In all patch-clamp experiments, the command input of the patch-clamp amplifier was controlled by a PDP 11/73 computer via a digital-analog converter, and membrane currents were recorded at a bandwidth of 2 kHz. The holding potential was adjusted in all experiments to E=-80 mV. Correction for capacitative currents was achieved by analog subtraction.
Type l Channels in a Human Lymphoma Line: The human B cell lymphoma line, Louckes, has been reported to express large numbers of type l K+ channels (Shapiro and DeCoursey, (1988) Biophys. J. 53, 550a). We have confirmed that Louckes cells display a K+ channel with gating kinetics and pharmacological sensitivities indistinguishable from the type l K+ channels of mouse T cells (Table I and II). Because Louckes is a human cell line, it should be possible to compare the Kv3.1 transcripts isolated from these cells with Kv3.1 transcripts isolated from mouse T cells.

mKv3.1a cDNA (NGK2) = conditions: data from Yokoyama, et al., 1989, cited from earlier work
rKv3.1 cDNA (Kv4) = conditions: data from Luneau, et al., 1991; read-out: Blockers, Kd / half-blocking dose; cited from earlier work
[2] = molecular target: T2, type n K+ channel (mouse) (Mus musculus, UniProt P16390); assay: Patch-clamp pharmacology of type n K+ channels in mouse T cells; assay type: cell-based
T2 construct: Native channels; endogenous in cells; host or cells: mouse T cells
T2 sequence (P16390 whole entry): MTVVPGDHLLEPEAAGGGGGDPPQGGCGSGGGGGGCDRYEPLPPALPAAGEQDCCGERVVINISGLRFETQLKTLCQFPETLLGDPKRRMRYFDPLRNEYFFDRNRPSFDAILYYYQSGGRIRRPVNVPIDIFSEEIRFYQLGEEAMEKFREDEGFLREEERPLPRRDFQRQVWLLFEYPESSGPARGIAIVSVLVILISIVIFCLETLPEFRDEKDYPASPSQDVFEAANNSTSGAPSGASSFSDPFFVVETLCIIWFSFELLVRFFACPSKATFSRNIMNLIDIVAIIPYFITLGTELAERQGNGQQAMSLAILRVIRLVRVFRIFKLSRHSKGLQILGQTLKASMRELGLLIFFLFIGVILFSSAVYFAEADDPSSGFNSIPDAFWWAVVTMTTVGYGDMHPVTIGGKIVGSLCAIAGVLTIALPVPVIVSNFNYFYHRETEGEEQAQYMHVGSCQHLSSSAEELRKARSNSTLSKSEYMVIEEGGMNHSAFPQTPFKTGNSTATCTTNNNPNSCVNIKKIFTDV
Description: (§2) A gigohm seal patch-clamp technique was employed [Hamill, et al., Pflugers Arch. […] Cells were separated and stained as described infra. Maximum K^+ conductances (gk) Of CD4^- CD8^- Thy-l.2^+ T cells were determined from the maximum peak K^+ current elicited at +40 mV (holding potential -80 mV), assuming a reversal potential for K^+ of -80 mV. All experiments were done at room temperature (22° to 26° C.). The cells under investigation were bathed in Ringer solution (in mM): 160 NaCl, 4.5 KCl, 2 MgCl2, 1 CaCl2, 2 MgCl2, and 10 K-HEPES (pH 7.4). […] Each point represents gk in one single cell except the ones with the bars that reflect the mean±SD of previously reported data. The data from C3H (n=12), C3H-lpr (n=22), C3H-gld (n=26), and MRL-lpr (n=31) are taken from Grissmer, et al., J. Immunol. […] Three types of voltage-gated K^+ channels (n, l, n') are expressed by murine T cells, which can be distinguished by electrophysiological and pharmacological criteria. DeCoursey, et al., J. Gen.
(§3) K^+ channels were identified on the basis of their inactivation properties, channel closing kinetics, and sensitivity to block by tetraethylammonium (TEA). Typically type n K^+ channels are use-dependent, i.e., show cumulative inactivation by repetitive depolarizing pulses. Use dependence was determined by measuring the decline in the size of the peak K^+ current elicited with one per second repetitive depolarizing pulses of 200 ms duration.
(§4) (5) Electrophysiology: After phenotypic identification by epifluorescence microscopy, single T cells were patch-clamped at room temperature (22° to 26° C).
(§5) Solutions: The cells under investigation were bathed in normal mammalian Ringer solution containing (in mM): 160 NaCl, 4.5 KCl, 2 MgCl2, 1CaCl2, and 5 Na-HEPES (pH 7.4). […] In Ringer solutions containing tetraethylammonium chloride (TEA^+), NaCl was replaced by the appropriate TEA^+ concentrations keeping the osmolarity constant. The bath solution could be changed during recordings by bath perfusion.

[3] = molecular target: T3, type n K+ channel (human) (Homo sapiens, UniProt P22001); assay: Patch-clamp pharmacology of type n K+ channels in human T cells; assay type: cell-based; conditions: for pKd: data from this paper
T3 construct: Native channels; endogenous in cells; host or cells: human T cells
T3 sequence (P22001 whole entry): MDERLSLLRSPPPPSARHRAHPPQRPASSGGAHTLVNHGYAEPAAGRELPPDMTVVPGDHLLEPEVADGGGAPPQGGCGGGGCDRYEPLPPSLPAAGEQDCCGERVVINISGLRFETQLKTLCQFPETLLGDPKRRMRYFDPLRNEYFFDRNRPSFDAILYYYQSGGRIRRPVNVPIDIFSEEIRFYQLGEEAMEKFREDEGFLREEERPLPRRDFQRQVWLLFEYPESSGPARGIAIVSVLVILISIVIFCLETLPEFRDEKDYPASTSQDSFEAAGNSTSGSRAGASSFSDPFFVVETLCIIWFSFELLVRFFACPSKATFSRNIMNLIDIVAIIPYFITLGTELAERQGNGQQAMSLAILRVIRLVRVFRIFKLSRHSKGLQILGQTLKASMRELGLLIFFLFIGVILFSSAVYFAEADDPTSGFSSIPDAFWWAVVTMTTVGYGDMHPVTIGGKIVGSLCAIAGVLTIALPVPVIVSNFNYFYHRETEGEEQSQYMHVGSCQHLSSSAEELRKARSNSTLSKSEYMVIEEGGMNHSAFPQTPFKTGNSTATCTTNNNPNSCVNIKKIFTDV
Description: (§6) The pipette solution was 3 M KCl. […] CTX was purchased from Latoxan (IBF-Biotechnics, Inc., Columbia, Md.).
as §1

mKv3.1b K+ channels = molecular target: T4, mKv3.1b K+ channels (Mus musculus, UniProt P15388); assay: cell-based; assay type: cell-based
T4 construct: expressed in transfected cells; host or cells: Xenopus oocytes injected with mKv3.1b mRNA
T4 sequence (P15388 1-585 isoform P15388-3): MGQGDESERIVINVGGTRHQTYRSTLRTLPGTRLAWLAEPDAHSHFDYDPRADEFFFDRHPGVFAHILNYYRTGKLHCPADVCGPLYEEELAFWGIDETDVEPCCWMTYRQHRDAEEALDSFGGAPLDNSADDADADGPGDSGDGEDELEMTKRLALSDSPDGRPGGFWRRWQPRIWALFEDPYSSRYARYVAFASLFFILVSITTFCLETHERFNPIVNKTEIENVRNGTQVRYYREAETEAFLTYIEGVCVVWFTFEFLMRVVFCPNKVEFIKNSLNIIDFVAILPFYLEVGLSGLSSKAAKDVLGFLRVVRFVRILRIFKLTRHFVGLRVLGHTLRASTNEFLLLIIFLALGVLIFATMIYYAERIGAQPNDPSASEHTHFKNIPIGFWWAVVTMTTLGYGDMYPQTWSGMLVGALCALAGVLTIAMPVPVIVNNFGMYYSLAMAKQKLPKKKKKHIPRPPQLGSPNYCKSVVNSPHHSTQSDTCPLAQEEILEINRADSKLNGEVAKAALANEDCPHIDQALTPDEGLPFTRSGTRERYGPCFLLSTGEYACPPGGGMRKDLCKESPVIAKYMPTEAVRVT
Description: For transcription, the plasmid was linearized by digestion with SacI in the polylinker.
All experiments were done at room temperature (22°-26°C.).
as §6, §1
Mouse Kv3.1b Expression in Oocytes: Xenopus oocytes express a high density of voltage-activated K+ channels following injection of mKv3.1b mRNA. […] Single channel recordings were done on outside-out patches from these oocytes, whereas gating and inactivation kinetics and pharmacological sensitivities were determined using outside-out patches of oocyte membrane injected with a 10 times more concentrated mRNA solution (50 nl of 0.1 μg/μ^1 mRNA).

type n channels = conditions: cited from earlier work
[4] = molecular target: T5, type l K+ channel (mouse) (Mus musculus, UniProt P15388); conditions: cited from earlier work; for effect on type l K+ channels, in words: MRL-lpr mice / mouse lymphocytes
T5 construct: Native channels; endogenous in cells; host or cells: mouse T cells (CD4-CD8- T cells of autoimmune strains such as MRL-lpr; normal cytotoxic T cells)
T5 sequence (P15388 1-511): T1 sequence (P48547 1-511) with I265V

[5] = molecular target: T3, type n K+ channel (human); conditions: data from DeCoursey, et al., 1984, Sands, 1989, read-out: Blockers, Kd / half-blocking dose; cited from earlier work
[6] = molecular target: T5, type l K+ channel (mouse); assay: Patch-clamp pharmacology of type l K+ channels in mouse T cells; assay type: cell-based; conditions: for pKd: data from this paper
Description: as §2, §3, §4, §5

[7] = molecular target: T2, type n K+ channel (mouse); conditions: cited from earlier work
[8] = Louckes cells, read-out: Blockers, Kd / half-blocking dose
[9] = 20 mM Co^2+, data from this paper
[10] = 20 mM Co^2+, data from DeCoursey, et al., 1987
[11] = data from DeCoursey, et al., 1987, read-out: Blockers, Kd / half-blocking dose
[12] = first value, read-out: apparent dissociation constant Kd, from reduction of the integral under the current trace
[13] = second value, read-out: apparent dissociation constant Kd, from reduction of the peak current amplitude

Nc1ccncc1 [4-AP, 4-aminopyridine]
pKd [1, 8]: > 4.00
pKd (mKv3.1a cDNA (NGK2); read-out: Blockers, Kd / half-blocking dose): 3.22
pKd (rKv3.1 cDNA (Kv4)): 3.52

[Co+2] [Co^2+]
Effect of 20 mM Co^2+: block gK(Co)/gK [2, 9]: 0.27
Effect of 20 mM Co^2+: shift ΔEn [2, 9]: 40 mV
Effect of 20 mM Co^2+: block gK(Co)/gK ([1]; 20 mM Co^2+): 0.76
Effect of 20 mM Co^2+: shift ΔEn ([1]; 20 mM Co^2+): 30 mV
Effect of Co^2+: block gK(Co)/gK ([3]; 10 mM Co^2+ (*)): 0.2
Effect of Co^2+: shift ΔEn ([3]; 10 mM Co^2+ (*)): 28 mV
Effect of 20 mM Co^2+: block gK(Co)/gK (mKv3.1b K+ channels; 20 mM Co^2+): 0.75
Effect of 20 mM Co^2+: shift ΔEn (mKv3.1b K+ channels; 20 mM Co^2+): 30 mV
effect on type n channels, in words (type n channels): strongly blocked
Effect of 20 mM Co^2+: block gK(Co)/gK [4, 10]: 0.9
Effect of 20 mM Co^2+: shift ΔEn [4, 10]: 36 mV
effect on type l K+ channels, in words [4]: strongly shift the voltage dependence of activation to more depolarized potentials, with minimal blocking

[La+3] [La3+]
effect on type n channels, in words (type n channels): strongly blocked
effect on type l K+ channels, in words [4]: strongly shift the voltage dependence of activation to more depolarized potentials, with minimal blocking

CC[N+](CC)(CC)CC [TEA, tetraethylammonium]
pIC50 [2]: 2.00
pKd [1, 8]: 3.92
pIC50 ([1]; human Louckes lymphoma cells, read-out: half-blocking dose): 4.00
pKd [5]: 2.10
pKd (mKv3.1b K+ channels; outside-out oocyte patch, pulses to +40 mV from -80 mV, read-out: Blockers, Kd / half-blocking dose): 3.82
pIC50 [6]: 4.00
pKd [7, 11]: 1.89 to 2.00
pKd ([7]; type n channels of murine T cells, read-out: KD of block by TEA, identification criterion): 2.10
pKd [4, 11]: 4.10
pKd ([4]; type l channels of murine T cells, read-out: KD / half-blocking dose of block by TEA, identification criterion): 4.00

C=C[C@H]1C[N@@]2CC[C@H]1C[C@H]2[C@H](O)c1ccnc2ccc(OC)cc12 [quinine]
pKd [1, 12]: 5.00
pKd [1, 13]: 4.70
pKd [3, 12]: 4.89
pKd [3, 13]: 4.62
pKd (mKv3.1b K+ channels; 200 ms steps from -80 mV to 40 mV, first value, read-out: apparent dissociation constant Kd, from reduction of the integral under the current trace): 5.40
effect on mKv3.1b K+ currents, in words (mKv3.1b K+ channels; oocytes): increased the apparent rate of mKv3.1b K+ current inactivation, and produced "use-dependent" block
pKd (mKv3.1b K+ channels; [13]): 4.70
pKd (mKv3.1a cDNA (NGK2); read-out: Blockers, quinine): 3.00
pKd [6, 12]: 5.00
pKd [6, 13]: 4.72
